In US20190112580A1, “METHODS FOR TREATING CO[…] AND RELATED CULTURED CELLS” (priority 2017, published 2019):

Test system: CP myoblast cultures
Test: Real-time qPCR gene expression profiling in fusing CP myoblasts
Type: cell-based, human
Set-up: key to JAG2 Expression / ATP2A1 Expression / DLL1 Expression / MYF5 Expression / ATP2A2 Expression / JAG1 Expression / SIX1 Expression / MYH7 Expression / CDKN1A Expression / NRG1 Expression / DLK1 Expression: relative expression vs non-treated; ≥2 up, ≤0.5 down
Procedure: To investigate whether additional signaling pathways and genes were affected by 5-AZA treatment, real-time qPCR was used to analyze the expression of 91 genes involved in myogenesis, neurogenesis and adipogenesis in fusing CP myoblasts after 24 hours of pretreatment with 5 μM of 5-AZA (Supp. Table 2A). […] Also, 5-AZA pretreatment led to upregulation of transcription regulators involved in myogenesis and other signaling pathways (BMI1, SIX1, SIX4, EGR3, FOXO1, MAPK14, MEF2A, MEF2C, MYF5, MYOG, NEUROD2, NOTCH2, PAX3, PAX7, PPARA, PPARD, PPARG, RPBJ, RARA). […] Impairment in other signaling pathways involved in myoblast fusion and myotube formation (e.g., TMEM8C/Myomaker, Rho GTPases, MAPKs, Calcineurin-NFATc2, NF-KB, WNT, MMPs) may also contribute to the decrease in myogenic potential of CP myoblasts.
Myoblasts, treated or non-treated with 5 μM 5-AZA for 24 hours, were cultured in high serum medium until they reached 80-90% confluence. After switch to low-serum medium, myoblast preparations were allowed to differentiate for 24-72 hours before RNA extraction. Total RNA was isolated and purified from myoblast cell culture preparations using Trizol reagent (Ambion—Life Technologies) according to manufacturer's recommendations. First-strand cDNA synthesis from purified RNAs and qPCR amplification was performed using the GoTaq 2-Step RT-qPCR System kit (Promega) according to manufacturer's protocols. Resulting cDNAs were subjected to SYBR Green-based real-time amplification using a C1000 Thermal Cycler apparatus (Bio-Rad). Each PCR amplification reaction (20 μl volume) contained 100 ng of starting cDNA template and primers amplifying a specific gene. Gene expression profiling during myoblast differentiation was investigated using predesigned 96-well gene panels for use with SYBR Green (SABioscience) (Tables 1A and 2A).
The predesigned 96-well gene panels utilized expertly designed and experimentally validated PCR primers and assays and included 3 reference genes for relative gene expression normalization and quantification: HPRT1, TBP and AP3DI. These reference genes were specifically validated for our experimental treatment and conditions and were selected among 15 experimentally tested candidates and analyzed using the software packages Bestkeeper, geNorm and Normfinder. Cycling conditions for SYBR Green primers consisted of an initial step at 50° C. (2 minutes) and a first denaturizing step at 95° C. (2 minutes), followed by 50 cycles of a thermal step protocol consisting of 95° C. (20 seconds), 60° C. (20 seconds) and 72° C. (20 seconds). A standard melt curve profiling consisting of a 65-95° C. thermal ramp was performed at the end of each protocol. Gene expression quantification was performed using Bio-Rad CFX Manager software. Positively and negatively regulated genes were selected following a P<0.05 and a 2 or 0.5 expression level respectively. Functional gene classification was performed using The Database for Annotation, Visualization and Integrated Discovery (DAVID) v6.8 (at <https://david.ncifcrf.gov/>).

[1] = 5 μM 24 hours pretreatment vs non-treated CP, 48-72 hours of differentiation
[2] = gene ACTA1, 5 μM 24 h pretreatment vs non-treated CP
[3] = gene ACTG1, 5 μM 24 h pretreatment vs non-treated CP
[4] = gene ACTN2, 5 μM 24 h pretreatment vs non-treated CP
[5] = gene ATP2A1, 5 μM 24 h pretreatment vs non-treated CP
[6] = gene ATP2A2, 5 μM 24 h pretreatment vs non-treated CP
[7] = gene BCL2, 5 μM 24 h pretreatment vs non-treated CP
[8] = gene BMI1, 5 μM 24 h pretreatment vs non-treated CP
[9] = gene CAV3, 5 μM 24 h pretreatment vs non-treated CP
[10] = gene CDKN1A, 5 μM 24 h pretreatment vs non-treated CP
[11] = gene DES, 5 μM 24 h pretreatment vs non-treated CP
[12] = gene DLK1, 5 μM 24 h pretreatment vs non-treated CP
[13] = gene DLL1, 5 μM 24 h pretreatment vs non-treated CP
[14] = gene EGR3, 5 μM 24 h pretreatment vs non-treated CP
[15] = gene FHL2, 5 μM 24 h pretreatment vs non-treated CP
[16] = gene FOXO1, 5 μM 24 h pretreatment vs non-treated CP
[17] = gene ITGA7, 5 μM 24 h pretreatment vs non-treated CP
[18] = gene ITGB1, 5 μM 24 h pretreatment vs non-treated CP
[19] = gene JAG1, 5 μM 24 h pretreatment vs non-treated CP
[20] = gene JAG2, 5 μM 24 h pretreatment vs non-treated CP
[21] = gene LRP4, 5 μM 24 h pretreatment vs non-treated CP
[22] = gene MAPK14, 5 μM 24 h pretreatment vs non-treated CP
[23] = gene MEF2A, 5 μM 24 h pretreatment vs non-treated CP
[24] = gene MEF2C, 5 μM 24 h pretreatment vs non-treated CP
[25] = gene MET, 5 μM 24 h pretreatment vs non-treated CP
[26] = gene MYF5, 5 μM 24 h pretreatment vs non-treated CP
[27] = gene MYF6, 5 μM 24 h pretreatment vs non-treated CP
[28] = gene MYH2, 5 μM 24 h pretreatment vs non-treated CP
[29] = gene MYH3, 5 μM 24 h pretreatment vs non-treated CP
[30] = gene MYH7, 5 μM 24 h pretreatment vs non-treated CP
[31] = gene MYH8, 5 μM 24 h pretreatment vs non-treated CP
[32] = gene MYH9, 5 μM 24 h pretreatment vs non-treated CP
[33] = gene MYOG, 5 μM 24 h pretreatment vs non-treated CP
[34] = gene NCAM1, 5 μM 24 h pretreatment vs non-treated CP
[35] = gene NEUROD2, 5 μM 24 h pretreatment vs non-treated CP
[36] = gene NOTCH2, 5 μM 24 h pretreatment vs non-treated CP
[37] = gene NRG1, 5 μM 24 h pretreatment vs non-treated CP
[38] = gene PAK1, 5 μM 24 h pretreatment vs non-treated CP
[39] = gene PAX3, 5 μM 24 h pretreatment vs non-treated CP
[40] = gene PAX7, 5 μM 24 h pretreatment vs non-treated CP
[41] = gene PDGFRA, 5 μM 24 h pretreatment vs non-treated CP
[42] = gene PDGFRB, 5 μM 24 h pretreatment vs non-treated CP
[43] = gene PPARA, 5 μM 24 h pretreatment vs non-treated CP
[44] = gene PPARD, 5 μM 24 h pretreatment vs non-treated CP
[45] = gene PPARG, 5 μM 24 h pretreatment vs non-treated CP
[46] = gene RARA, 5 μM 24 h pretreatment vs non-treated CP
[47] = gene RBPJ, 5 μM 24 h pretreatment vs non-treated CP
[48] = gene SHH, 5 μM 24 h pretreatment vs non-treated CP
[49] = gene SIX1, 5 μM 24 h pretreatment vs non-treated CP
[50] = gene SIX4, 5 μM 24 h pretreatment vs non-treated CP
[51] = gene TMEM8C, 5 μM 24 h pretreatment vs non-treated CP

Nc1ncn([C@@H]2O[C@H](CO)[C@@H](O)[C@H]2O)c(=O)n1 [5-AZA, 5-azacytidine]
genes significantly downregulated (of 91 genes) [1]: 7 genes
genes significantly upregulated (of 91 genes) [1]: 43 genes
ACTA1 Expression [2]: 5.23
ACTA1 Regulation [2]: 5.2
ACTG1 Expression [3]: 0.09
ACTG1 Regulation [3]: −10.7
ACTN2 Expression [4]: 5.96
ACTN2 Regulation [4]: 6.0
ATP2A1 Expression [5]: 7.87
ATP2A1 Regulation [5]: 7.9
ATP2A2 Expression [6]: 3.26
ATP2A2 Regulation [6]: 3.3
BCL2 Expression [7]: 5.33
BCL2 Regulation [7]: 5.3
BMI1 Expression [8]: 2.97
BMI1 Regulation [8]: 3.0
CAV3 Expression [9]: 2.92
CAV3 Regulation [9]: 2.9
CDKN1A Expression [10]: 0.23
CDKN1A Regulation [10]: −4.4
DES Expression [11]: 6.23
DES Regulation [11]: 6.2
DLK1 Expression [12]: 16.51
DLK1 Regulation [12]: 16.5
DLL1 Expression [13]: 7.05
DLL1 Regulation [13]: 7.0
EGR3 Expression [14]: 14.93
EGR3 Regulation [14]: 14.9
FHL2 Expression [15]: 0.45
FHL2 Regulation [15]: −2.2
FOXO1 Expression [16]: 7.30
FOXO1 Regulation [16]: 7.3
ITGA7 Expression [17]: 4.22
ITGA7 Regulation [17]: 4.2
ITGB1 Expression [18]: 2.11
ITGB1 Regulation [18]: 2.1
JAG1 Expression [19]: 2.61
JAG1 Regulation [19]: 2.6
JAG2 Expression [20]: 10.19
JAG2 Regulation [20]: 10.2
LRP4 Expression [21]: 3.01
LRP4 Regulation [21]: 3.0
MAPK14 Expression [22]: 2.84
MAPK14 Regulation [22]: 2.8
MEF2A Expression [23]: 10.08
MEF2A Regulation [23]: 10.1
MEF2C Expression [24]: 5.79
MEF2C Regulation [24]: 5.8
MET Expression [25]: 2.07
MET Regulation [25]: 2.1
MYF5 Expression [26]: 6.99
MYF5 Regulation [26]: 7.0
MYF6 Expression [27]: 3.77
MYF6 Regulation [27]: 3.8
MYH2 Expression [28]: 6.99
MYH2 Regulation [28]: 7.0
MYH3 Expression [29]: 6.74
MYH3 Regulation [29]: 6.7
MYH7 Expression [30]: 2.15
MYH7 Regulation [30]: 2.1
MYH8 Expression [31]: 2.51
MYH8 Regulation [31]: 2.5
MYH9 Expression [32]: 0.17
MYH9 Regulation [32]: −5.8
MYOG Expression [33]: 7.72
MYOG Regulation [33]: 7.7
NCAM1 Expression [34]: 6.55
NCAM1 Regulation [34]: 6.6
NEUROD2 Expression [35]: 56.33
NEUROD2 Regulation [35]: 56.3
NOTCH2 Expression [36]: 3.12
NOTCH2 Regulation [36]: 3.1
NRG1 Expression [37]: 0.47
NRG1 Regulation [37]: −2.1
PAK1 Expression [38]: 4.49
PAK1 Regulation [38]: 4.5
PAX3 Expression [39]: 12.50
PAX3 Regulation [39]: 12.5
PAX7 Expression [40]: 2.88
PAX7 Regulation [40]: 2.9
PDGFRA Expression [41]: 0.38
PDGFRA Regulation [41]: −2.6
PDGFRB Expression [42]: 0.34
PDGFRB Regulation [42]: −2.9
PPARA Expression [43]: 2.69
PPARA Regulation [43]: 2.7
PPARD Expression [44]: 3.55
PPARD Regulation [44]: 3.6
PPARG Expression [45]: 24.42
PPARG Regulation [45]: 24.4
RARA Expression [46]: 2.19
RARA Regulation [46]: 2.2
RBPJ Expression [47]: 3.84
RBPJ Regulation [47]: 3.8
SHH Expression [48]: 23.75
SHH Regulation [48]: 23.8
SIX1 Expression [49]: 2.21
SIX1 Regulation [49]: 2.2
SIX4 Expression [50]: 3.20
SIX4 Regulation [50]: 3.2
TMEM8C Expression [51]: 3.59
TMEM8C Regulation [51]: 3.6
